PMC11528023, “Transport mechanism and structural pharmacology of human urate transporter URAT1” (Cell Research, 2024)

Target: T1, URAT1 F449A (Homo sapiens, UniProt Q96S37, F449A)
T1 construct: expressed in transfected cells; host or cells: HEK293 cells (ATCC, CRL-3216), transient transfection
T1 sequence (Q96S37 1-553 F449A): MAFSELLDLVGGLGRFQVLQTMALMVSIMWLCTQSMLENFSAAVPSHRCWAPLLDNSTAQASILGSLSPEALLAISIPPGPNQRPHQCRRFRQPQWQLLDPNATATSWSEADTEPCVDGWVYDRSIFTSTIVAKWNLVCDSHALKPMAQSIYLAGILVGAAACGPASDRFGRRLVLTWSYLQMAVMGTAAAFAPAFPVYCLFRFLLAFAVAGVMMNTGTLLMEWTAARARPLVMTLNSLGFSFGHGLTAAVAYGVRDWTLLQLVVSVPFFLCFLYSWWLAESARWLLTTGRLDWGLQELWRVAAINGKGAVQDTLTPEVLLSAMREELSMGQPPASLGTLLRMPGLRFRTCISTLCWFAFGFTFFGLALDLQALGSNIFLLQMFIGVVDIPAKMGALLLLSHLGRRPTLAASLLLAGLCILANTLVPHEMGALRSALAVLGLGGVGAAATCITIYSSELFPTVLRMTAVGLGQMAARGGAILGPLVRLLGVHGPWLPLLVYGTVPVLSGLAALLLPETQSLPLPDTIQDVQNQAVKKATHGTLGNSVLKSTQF
Assay type: cell-based
Conditions: dose-response of 14C-urate uptake, Fig. 6c
From the text: Fig. 6 Dotinurad inhibition and the mechanism of URAT1 transport. a Structure of dotinurad-bound URAT1. Detailed interactions between dotinurad and URAT1 are shown on the right. b Dotinurad-binding pocket, depicted in a top view looking down from the extracellular side. c Dose-response curves of URAT1 variants with mutations in the dotinurad-binding site, using the same buffer as defined in Fig. 1 legend. Data are shown as mean ± SD; n = 3 biological replicates. d Comparison between the dotinurad-bound and apo structures. e Schematic diagram of URAT1 importing urate. […]
Human embryonic kidney (HEK) 293 cells (ATCC, CRL-3216) were seeded onto poly(D-lysine)-coated 96-well plates at a density of 0.3 × 10^5 cells per well and cultured at 37 °C until reaching approximately 70%–80% confluence. […] The cells were then lysed in 0.1 M NaOH, and the lysed samples were added to scintillation liquid to measure radioactivity using a PerkinElmer Microbeta2 counter.
For dose-response assays, the cells were incubated with urate and increasing concentrations of inhibitors. […] Nonspecific uptake was measured in each plate in non-transfected cells, and this value was subtracted from the total uptake to obtain the URAT1-specific uptake. To compare the uptake signals among URAT1 variants, the mVenus fluorescence intensity of each construct was measured using fluorescence-detection size-exclusion chromatography[49] […]

For `O=C(c1cc(Cl)c(O)c(Cl)c1)N1CS(=O)(=O)c2ccccc21` [dotinurad], the “Effect of F449A mutation on drug sensitivity” value was “completely eliminating URAT1’s sensitivity”.
